Data from patent US20260226077A1, “TYPE II TOPOISOMERASE INHIBITORS AND METHODS OF MAKING AND USING THEREOF” (Ohio State Innovation Foundation, priority 2023, published 2026).
Values after ≈ are worked out from the molar mass of the structure shown.

Columns and labels:
Rat microsomal stability = format: in vitro ADME; conditions: microsomes, read-out: Rat microsom. t1/2
[1] = test system: Acinetobacter baumannii 19606; assay: MIC against Acinetobacter baumannii 19606; format: cell-based
physchem = conditions: pH 7.4, aqueous buffer, kinetic from dmso stock, Kinetic solubility at pH 7.4-7.5 (μM)
Streptococcus agalactiae = assay: MIC50/90 against Streptococcus agalactiae; format: cell-based
Enterococcus spp. = assay: MIC50/90 against Enterococcus spp.; format: cell-based; conditions: n = 10 (147), n = 20 (others)
[2] = not given; remark: listed apart in the source
in vitro [3] = conditions: human, hepatocytes
[4] = test system: Burkholderia pseudomallei; assay: microbe, parasite or virus in culture; format: cell-based
Streptococcus pyogenes = assay: MIC50/90 against Streptococcus pyogenes; format: cell-based
[5] = test system: Pseudomonas aeruginosa 27853; assay: MIC against Pseudomonas aeruginosa 27853; format: cell-based
in vitro [6] = conditions: human, plasma
[7] = Human microsomal stability; format: in vitro ADME; conditions: microsomes, read-out: Human microsom. t1/2

## COc1ccc2ncc(F)c(C[C@H](O)[C@H]3OC[C@H](NCc4cnc5c(n4)NC(=O)CO5)CO3)c2n1 [Compound 284, 6-(((2-((S)-2-(3-fluoro-6-methoxy-1,5-naphthyridin-4-yl)-1-hydroxyethyl)-trans-1,3-dioxan-5-yl)amino)methyl)-2H-pyrazino[2,3-b][1,4]oxazin-3(4H)-one]
Rat microsomal stability
  half-life: > 2 h
[1]
  MIC: 8 to 16 µg/mL (≈ 16.4 to 32.9 µM)
physchem
  solubility kinetic: 118 µM (≈ 57.2 µg/mL)
other
  Safety44 screen at 100 μM: None >50%
Streptococcus agalactiae; Streptococcus agalactiae, n = 5 (147), n = 10 (others)
  MIC50: 4 µg/mL (≈ 8.22 µM)
Streptococcus agalactiae; n = 10
  Streptococcus agalactiae MIC90: 16 µg/mL
Enterococcus spp.
  MIC50: 1 µg/mL (≈ 2.06 µM)
  MIC90: 2 µg/mL (≈ 4.11 µM)
[2]
  Human plasma protein binding (% unbound): 10 % unbound
In vitro [3]
  half-life: > 4 h
[4]; read-out: Burkholderia pseudomallei MIC50 (μg/mL)
  MIC50: 32 µg/mL (≈ 65.8 µM)
[4]; read-out: Burkholderia pseudomallei MIC90 (μg/mL)
  MIC90: 64 µg/mL (≈ 132 µM)
Streptococcus pyogenes; n = 5 (147), n = 10 (others)
  MIC50: 0.5 µg/mL (≈ 1.03 µM)
Streptococcus pyogenes; n = 10
  MIC90: 2 µg/mL (≈ 4.11 µM)
[5]
  MIC: 64 µg/mL (≈ 132 µM)
In vitro [6]
  half-life: > 2 h
[7]
  half-life: > 2 h
